What all share (test): NCI-60 cell line screen, 48 h
Assay [1] relates to NCI-H23.
In assay [2] the test system is MDA-MB-435.
The test system of assay [3] is SNB-19.
Assay [4] concerns TK-10.
Assay [5] relates to K562.
Assay [6] deals with OVCAR-4.
Assay [7] relates to Malme-3M.
Assay [8] deals with T47D.
Assay [9] relates to NCI-H460.
Assay [10] concerns OVCAR-8.
Assay [11] deals with PC-3.
Assay [12] concerns KM12.
Assay [13] concerns SF-539.
In assay [14] the test system is A498.
In assay [15] the test system is SNB-75.
Assay [16] concerns HCT-116.
Assay [17] relates to CAKI-1.
The test system of assay [18] is A549.
The subject of assay [19] is NCI/ADR-RES.
In assay [20] the test system is HL-60.

Experimental findings from ChEMBL document CHEMBL1201862, “PubChem BioAssay data set” (2004) are described below.

Molecules are shown by their SMILES.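 Results reflect a 48-hour exposure of cells in 96-well plates to compound at five concentrations. GI50 marks 50% less growth.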 Active and inactive are the calls of the source. Cut-off read from the data, not from the text of the source: active = GI50 up to about 1.1 µM and inactive = higher.

`CC(N)(CC(O)(C(F)(F)Cl)C(F)(F)Cl)C(=O)O` (stereo unspecified): the GI50 in [1], in [2], in [3], in [4], in [5] and in assay [6] was > 10 µM (inactive) each time. The GI50 in [7], in [8], in assay [9], in [10], in [11] and in assay [12] was > 10 µM (inactive) throughout. For the same compound, the GI50 in [13], in assay [14], in assay [15], in assay [16], in assay [17] and in [18] was > 10 µM (inactive) each time. Moreover, the GI50 in [19] was > 10 µM (inactive).
As for `COc1ccc2c(c1)CCC/C2=N\NS(=O)(=O)c1c(C)cc(C)cc1C`, the GI50 was 24.8 µM (inactive) in assay [1]; 27.7 µM (inactive) in assay [2]; 41.6 µM (inactive) in assay [3]; 51.4 µM (inactive) in [4]; 18.1 µM (inactive) in assay [5]; 29.9 µM (inactive) in assay [6]. The GI50 in assay [7] was 24.4 µM (inactive); in assay [8], 16.5 µM (inactive); in [9] it was 31 µM (inactive); in [10], 30.9 µM (inactive); in assay [11] it was 28.6 µM (inactive); in assay [12], 16 µM (inactive). Further, the GI50 was 19.2 µM (inactive) in assay [13]; 31.8 µM (inactive) in [14]; 13.8 µM (inactive) in assay [15]; 18.3 µM (inactive) in assay [16]; 38.5 µM (inactive) in assay [17]; 34.9 µM (inactive) in assay [18]. Moreover, the GI50 in [19] was 21.7 µM (inactive).
Turning to `CC1(C)C(CCO)CC1n1ccc(=O)[nH]c1=O` (stereo unspecified), the GI50 was > 100 µM (inactive) in [2]; > 100 µM (inactive) in assay [3]; > 100 µM (inactive) in assay [4]; 10.6 µM (inactive) in assay [5]; > 100 µM (inactive) in [6]; > 100 µM (inactive) in [8]. The GI50 in assay [11], in [12], in assay [13], in assay [14], in assay [15] and in assay [16] was > 100 µM (inactive) throughout. Moreover, the GI50 in assay [17], in assay [18] and in assay [19] was > 100 µM (inactive) in each case.
As to `Cc1cn2c(/C=C3/C(=O)Nc4cccc(Cl)c43)c(Cl)nc2s1`, the GI50 was 25.8 µM (inactive) in [1]; > 100 µM (inactive) in assay [2]; 40.4 µM (inactive) in [3]; 17.9 µM (inactive) in assay [4]; > 100 µM (inactive) in assay [5]; > 100 µM (inactive) in [6]. The GI50 in [7] was > 100 µM (inactive); in [8], > 100 µM (inactive); in assay [10] it was > 100 µM (inactive); in [20] it was 53.7 µM (inactive); in assay [11], > 100 µM (inactive); in assay [12], > 100 µM (inactive). For the same compound, the GI50 in [14] is 63.2 µM (inactive); in [15], 14.2 µM (inactive); in [16], 60.1 µM (inactive); in assay [17] it was > 100 µM (inactive); in assay [18], 27 µM (inactive); in [19], > 100 µM (inactive).
Take `CCC(C(=O)C(=O)C(CC)P1(=O)OC(C)(C)CN1C(C)(C)C)P1(=O)OC(C)(C)CN1C(C)(C)C` (stereo unspecified): the GI50 is > 100 µM (inactive) in [1]; > 100 µM (inactive) in assay [2]; > 100 µM (inactive) in assay [3]; > 100 µM (inactive) in assay [4]; 31.8 µM (inactive) in assay [5]; > 100 µM (inactive) in [8]. Also, the GI50 in [9], in assay [10], in assay [20], in assay [11], in assay [12] and in assay [13] was > 100 µM (inactive) in each case. For the same compound, the GI50 was > 100 µM (inactive) in assay [14]; 49.7 µM (inactive) in assay [15]; > 100 µM (inactive) in assay [16]; > 100 µM (inactive) in [17]; > 100 µM (inactive) in assay [18]; > 100 µM (inactive) in [19].
Consider `COC(=O)C(=O)C(C(=O)C(=O)Nc1cc(C)ccc1C)c1nc2ccccc2nc1O` (stereo unspecified), for which the GI50 in assay [1], in assay [2], in assay [3], in [4], in assay [5] and in [6] was > 100 µM (inactive) each time. Besides, the GI50 in assay [7], in [8], in assay [9], in assay [10], in [11] and in [12] was > 100 µM (inactive) throughout. Also, the GI50 in assay [13] was > 100 µM (inactive); in assay [14] it was > 100 µM (inactive); in [15], > 100 µM (inactive); in [16] it was > 100 µM (inactive); in assay [17], > 100 µM (inactive); in assay [18] it was 85.3 µM (inactive). In assay [19], the GI50 was > 100 µM (inactive).
For the compound `Nc1ccc2c(c1)C(=O)N1CCC[C@H]1C(=O)N2`, the GI50 in assay [1], in assay [2], in [3], in assay [4], in assay [5] and in assay [6] was > 100 µM (inactive) each time. Further, the GI50 in assay [7], in assay [8], in [9], in [10], in assay [11] and in assay [12] was > 100 µM (inactive) each time. The GI50 in [13], in [14], in assay [15], in [16], in assay [17] and in [18] was > 100 µM (inactive) each time. Also, the GI50 in assay [19] is > 100 µM (inactive).
`CCn1c(SCc2nnc(Nc3ccccc3)s2)nc2ccccc2c1=O`: the GI50 in [1] is 4.7 µM (inactive); in assay [2], 10.3 µM (inactive); in assay [3], 3.5 µM (inactive); in assay [4] it was 3.45 µM (inactive); in [5] it was 19.8 µM (inactive); in assay [6], 1.82 µM (inactive). Besides, the GI50 in assay [7] is 1.46 µM (inactive); in assay [8], 5.57 µM (inactive); in [9] it was 1.45 µM (inactive); in assay [10], 2.02 µM (inactive); in assay [11] it was 8.79 µM (inactive); in assay [12] it was 2.38 µM (inactive). Further, the GI50 in assay [13] is 3.27 µM (inactive); in assay [14], 1.67 µM (inactive); in assay [15] it was 3.85 µM (inactive); in assay [16] it was 1.95 µM (inactive); in assay [17], 3.04 µM (inactive); in assay [18], 3.67 µM (inactive). Moreover, the GI50 in [19] was 2.59 µM (inactive).
Take `CCOC(=O)Cc1nn2c(=O)cc(C)nc2s1`: the GI50 in [1], in assay [2], in assay [3], in assay [4], in assay [5] and in assay [6] was > 100 µM (inactive) throughout. Also, the GI50 in [7], in assay [8], in [9], in assay [10], in assay [20] and in assay [11] was > 100 µM (inactive) throughout. In addition, the GI50 in assay [12] was > 100 µM (inactive); in assay [13] it was 55.2 µM (inactive); in assay [15], > 100 µM (inactive); in assay [16], > 100 µM (inactive); in assay [17] it was > 100 µM (inactive); in assay [18] it was > 100 µM (inactive). For the same compound, the GI50 in assay [19] is > 100 µM (inactive).
Regarding `Cc1cc2c(cc1Cl)SC(c1ccccc1)C(=O)NS2(=O)=O` (stereo unspecified), the GI50 is 24.4 µM (inactive) in [1]; 35.1 µM (inactive) in assay [2]; 37.6 µM (inactive) in assay [4]; 39.2 µM (inactive) in assay [5]; 35.4 µM (inactive) in [6]; 30.1 µM (inactive) in assay [8]. In addition, the GI50 is 30.3 µM (inactive) in assay [9]; 36.2 µM (inactive) in [10]; 29.3 µM (inactive) in assay [20]; 26.4 µM (inactive) in assay [11]; 30.3 µM (inactive) in assay [12]; 26.7 µM (inactive) in assay [13]. For the same compound, the GI50 in assay [14] is 26.9 µM (inactive); in [15], 19.7 µM (inactive); in assay [16], 20.5 µM (inactive); in assay [17], 38.9 µM (inactive); in [19] it was 29.5 µM (inactive).
`Oc1ccc([C@H]2c3c(O)cc(O)cc3C3c4c(cc(O)cc4[C@@H]2[C@H]2c4cc(O)cc5c4C(c4cc(O)cc(O)c4[C@@H]2c2ccc(O)cc2)[C@@H](c2ccc(O)cc2)O5)O[C@@H]3c2ccc(O)cc2)cc1` (stereo partly specified): the GI50 in [1] was 0.526 µM (active); in assay [2], 2.59 µM (inactive); in assay [3], 3.35 µM (inactive); in [4], > 100 µM (inactive); in assay [5], 35.2 µM (inactive); in [6], 0.83 µM (active). Further, the GI50 in assay [7] is 0.411 µM (active); in [8] it was 0.536 µM (active); in assay [9], 3.89 µM (inactive); in assay [10], 2.69 µM (inactive); in assay [20], 2.48 µM (inactive); in [11], 0.391 µM (active). The GI50 is 0.0211 µM (active) in assay [12]; 0.564 µM (active) in assay [13]; 0.5 µM (active) in assay [15]; 0.861 µM (active) in assay [16]; > 100 µM (inactive) in assay [17]; 0.634 µM (active) in [18]. For the same compound, the GI50 in assay [19] is > 100 µM (inactive).
